Test results: PubChem BioAssay (NCI)
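Cells were grown in 96-well plates and exposed to each compound for 48 hours at five concentrations; endpoints were interpolated linearly between bracketing concentrations, or set to the highest concentration if not reached. GI50 marks 50% less growth. Definition used: TGI = concentration required for complete inhibition of growth.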

Experiments:
Assay in all cases: NCI tumour cell line growth inhibition, 48 h
OVCAR-8 ovarian = tested on: OVCAR-8 ovarian
SF-268 CNS = tested on: SF-268 CNS
MDA-MB-435 = tested on: MDA-MB-435
HS 578T breast = tested on: HS 578T breast
NCI-H460 lung = tested on: NCI-H460 lung
T-47D breast = tested on: T-47D breast
CAKI-1 renal = tested on: CAKI-1 renal
MDA-N = tested on: MDA-N
HOP-92 NSCLC = tested on: HOP-92 NSCLC
LOX IMVI melanoma = tested on: LOX IMVI melanoma
RPMI-8226 leukemia = tested on: RPMI-8226 leukemia
SR leukemia = tested on: SR leukemia
HCT-15 colon = tested on: HCT-15 colon
UACC-257 melanoma = tested on: UACC-257 melanoma

Row | SMILES | TGI (OVCAR-8 ovarian) [µM] | TGI (SF-268 CNS) [µM] | TGI (MDA-MB-435) [µM] | TGI (HS 578T breast) [µM] | TGI (NCI-H460 lung) [µM] | TGI (T-47D breast) [µM] | TGI (CAKI-1 renal) [µM] | TGI (MDA-N) [µM] | TGI (HOP-92 NSCLC) [µM] | TGI (LOX IMVI melanoma) [µM] | TGI (RPMI-8226 leukemia) [µM] | TGI (SR leukemia) [µM] | TGI (HCT-15 colon) [µM] | TGI (UACC-257 melanoma) [µM] | GI50 (MDA-MB-435) [µM] | GI50 (NCI-H460 lung) [µM] | GI50 (CAKI-1 renal) [µM] | GI50 (MDA-N) [µM]
1 | CSc1ccc(Nc2cc(=O)[nH]c(=O)[nH]2)cc1 | > 100 | > 100 | > 100 | > 100 | > 100 | > 100 | > 100 | > 100 | > 100 | > 100 | > 100 | > 100 | > 100 | > 100 | – | – | – | –
2 | CC(C)=CCC[C@@H](C)C1=C(O)C(Nc2ccccc2Cl)=C(C)C(=O)C1=O | > 41 | > 75 | > 75 | > 69.9 | > 75 | 62.7 | > 55 | > 75 | > 67.8 | > 75 | > 55.8 | 72.1 | > 75 | > 75 | – | – | – | –
3 | O=C1Nc2nccnc2C(=O)N2CCC[C@@H]12 | > 100 | > 100 | > 100 | > 100 | > 100 | > 100 | > 100 | > 100 | > 100 | > 100 | > 100 | > 100 | > 100 | > 100 | – | – | – | –
4 | COC(C)(C)/C=C/c1[nH]c2ccccc2c1CC(=O)NCCc1cn(C(c2ccccc2)(c2ccccc2)c2ccccc2)cn1 | > 100 | > 100 | 22.3 | 60.2 | > 23.5 | > 21.9 | > 100 | 19.9 | > 28.3 | > 51.3 | 6.77 | 5.8 | > 100 | 24.9 | – | – | – | –
5 | CC(C)C(OC(=O)c1ccc(NCC2=CC(=O)C=CC2=O)cc1)C(C)C | 12.9 | 31.9 | 17.9 | 16.7 | 32.6 | 7.45 | 3.02 | 21.5 | 4.67 | 18 | > 28.2 | 11.9 | 10.4 | 25.9 | – | – | – | –
6 | Cc1cc2nc3ccccc3n2c2nc(N)ccc12 | 80.4 | > 100 | > 100 | > 100 | 27.5 | > 100 | > 100 | > 100 | 69 | > 100 | 70.2 | > 100 | 93.1 | > 100 | – | – | – | –
7 | O=C1/C(=C/c2ccccc2[N+](=O)[O-])N=C(c2ccccc2)N1c1nc2ccccc2s1 | 39.7 | 60.4 | 54.1 | 62.4 | > 100 | 76.6 | > 100 | 71.9 | 52.1 | 56.8 | 61.6 | 34.3 | 56.8 | > 100 | – | – | – | –
8 | COc1ccccc1/C=C/C1=NN(c2cccc(S(=O)(=O)O)c2)C2(C1)C(Cl)C(=O)N2c1nc2ccccc2s1 (stereo not drawn) | > 100 | > 100 | > 100 | > 100 | > 100 | 44 | > 74.3 | > 100 | > 95 | > 67 | 44 | 55.2 | > 100 | > 100 | – | – | – | –
9 | Cc1ccc2c(=O)cc(-c3ccc4ccccc4c3)[nH]c2n1 | > 100 | > 100 | 4.16 | 20 | > 100 | > 100 | > 100 | 4.69 | 7.7 | 39.6 | 19.5 | 5.59 | > 100 | > 100 | 1.57 | 3.82 | 5.41 | 1.94
10 | CCOC(=O)NC(Nc1ccc(F)cc1)(C(=O)OCC)C(F)(F)F (stereo not drawn) | > 100 | > 100 | > 100 | > 100 | > 100 | > 100 | > 100 | > 100 | > 100 | > 100 | > 100 | > 100 | > 100 | > 100 | – | – | – | –
11 | CC(C)=CCCC(C)CCOS(=O)C(F)(F)F (stereo not drawn) | > 100 | 44.7 | 37.1 | 5.31 | 46.3 | > 100 | > 100 | 14 | > 100 | 37.2 | 90.8 | 10.3 | 11.5 | 52.9 | – | – | – | –
